Entries after “also recorded” stand apart in the source; their conditions may differ.
What was measured:
[1] = system: acidosis/GPR4-induced HUVEC cell adhesion; experiment: HUVEC-U937 monocyte cell adhesion assay; format: cell-based, human; conditions: HUVEC cells treated with acidic pH, attachment of U937 monocytes as readout
Experimental: Cell adhesion assay: To examine the adhesion of HUVEC endothelial cells and to model the interaction between endothelium and immune cells, the HUVEC-U937 monocyte adhesion assay was used as a functional readout. […] In brief, HUVEC endothelial cells were cultured in a 24-well plate to form a confluent monolayer, and treated with EGM-2/HEM media at various pHs for 5 to 15 hours. After the pH treatment, HUVEC cells were washed once with DMEM medium (pH 7.4), and then U937 monocytic cells resuspended in DMEM with 10% fetal bovine serum (FBS) were added to the HUVEC monolayer to allow adhesion for 1 hour at pH 7.4. Non-adherent cells were removed by gently washing several times with DMEM medium.
Effects on HUVEC cell adhesion: HUVEC cells with GPR4 siRNA or control siRNA were treated with different pHs, and the U937-HUVEC cell adhesion assay was performed.

[2] = system: acidosis/GPR4-induced HUVEC cell adhesion; experiment: HUVEC-U937 monocyte cell adhesion assay; format: cell-based, human; conditions: treatment with cAMP pathway activators, attachment of U937 monocytes as readout

Compound	effect on acidosis/GPR4-induced HUVEC cell adhesion [1]	effect on adhesion of HUVEC cells [2]
C[C@H]1O[C@@H](n2cnc3c(N)ncnc32)C[C@@H]1O [2′,5′-dideoxyadenosine]	reduced; also recorded: abolishes; also recorded: diminishes	
CO[C@@H]1[C@@H]2OP(=O)(O)OC[C@H]2O[C@H]1n1c(Sc2ccc(Cl)cc2)nc2c(N)ncnc21 [8-CPT-2Me-cAMP]		increases
O=S(=O)(NCCNC/C=C/c1ccc(Br)cc1)c1cccc2cnccc12 [H-89]	did not affect; also recorded: does not affect	
Nc1ncnc2c1ncn2C1CCCO1 (centres unmarked) [SQ 22536]	abolishes; also recorded: reduces	
pertussis toxin		enhanced; also recorded: increases
